From patent US20240270801A1, “EPITOPE PEPTIDE OF HUMAN ALPHA-SYNUCLEIN AND PHARMACEUTICAL COMPOSITION INCLUDING SAID PEPTIDE” (Sumitomo Pharma Co., Ltd., priority 2021, published 2024)
No end group written: not given here. KLH = keyhole limpet hemocyanin

Key:
[1] = test system: human αSyn; test: Antibody-inducing ability in mice: ELISA antibody titer of immune serum with respect to human αSyn; format: in vivo, mouse
In short: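 Female balb/c mice, 6 weeks old, immunized i.m. twice 2 weeks apart with peptide conjugates (250 μg/mouse; KLH-DMPVDPDN 25 μg/mouse) plus Alum 50 μg/mouse. Serum taken 2 weeks after second dose. IgG titer measured by ELISA on human αSyn (0.2 μg/well) or aggregated αSyn (15 ng/well), A450; titers expressed as log relative to control conjugate.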

[2] = test system: aggregated human αSyn; test: Antibody-inducing ability in cynomolgus monkeys: ELISA antibody titer with respect to aggregated human αSyn; format: in vivo; conditions: i.m. three times at 2-week interval, Alum; AJ conjugates 2,000 μg/monkey, KLH-DMPVDPDN 75 μg/monkey; FIG. 4B
Experimental: The antibody-inducing ability of the AJ-human αSyn peptide conjugate with respect to human αSyn and aggregated human αSyn in cynomolgus monkeys was evaluated. The AJ-human αSyn peptide conjugates (AJ-p54, AJ-p150, AJ-p283, AJ-p142, and AJ-p273) (2,000 μg/monkey) and KLH-DMPVDPDN (75 μg/monkey) were intramuscularly administered to cynomolgus monkeys (males, 3 to 7 years old, SNBL, Ltd.) three times at a 2-week interval using Alum (InvivoGen, 200 μg/monkey) as an adjuvant. Blood was collected before administration and 4, 6, 8, and 10 weeks after the first administration to recover the serum. ELISA was performed by the following method.
96-well plates were coated with human αSyn (Sigma-Aldrich) or aggregated human αSyn (StressMarq Biosciences Inc.) at 0.2 μg/well or 15 ng/well. After washing with PBST once, blocking was performed with 3% skim milk (FUJIFILM Wako Pure Chemical Corporation). After washing with PBST three times, diluted serum was added to cause a reaction at room temperature for 1 hour. Furthermore, after washing with PBST three times, Goat anti-Monkey IgG-HRP (Bio-Rad Laboratories, Inc.) was added to cause a reaction at room temperature for 1 hour. […] An equal volume of a TMB Stop Solution (KPL) was added to stop the reaction, and the absorbance at 450 nm was measured.

KLH-C-DMPVDPDN ({KLH}-CDMPVDPDN) [KLH-DMPVDPDN, comparison vaccine, reference compound]
Induction of the antibody to human αSyn in the mouse serum (in words) ([1]; Example 2, balb/c mice): induction of the antibody to human αSyn was also confirmed | Antibody titer with respect to human αSyn (N = 4 − 6, mean ± standard deviation) ([1]; Example 2, balb/c mice, i.m. twice at 2-week interval, Alum, AJ conjugates 250 μg/mouse, KLH-DMPVDPDN 25 μg/mouse, serum 2 weeks after second administration): 5461 ± 2365 | Induction of the antibody to human αSyn (in words) ([1]; Example 4, balb/c mice): induced the antibody to human αSyn | Antibody titer with respect to human αSyn (mean ± standard deviation) ([1]; Example 4, balb/c mice, i.m. twice at 2-week interval, Alum, AJ conjugates 250 μg/mouse, KLH-DMPVDPDN 25 μg/mouse): 1792 ± 1536 | Induction of the antibody to aggregated human αSyn in cynomolgus monkeys [2]: not induced
